{"source": "ChEMBL document CHEMBL4049384", "about": "“Synthesis and evaluation of an injectable everolimus prodrug” (Bioorg Med Chem Lett, 2017)", "key": {"[1]": {"test_system": "OS-RC-2", "experiment": "Antitumor activity against human OS-RC2 cells xenografted in nude mouse assessed as tumor weight at 24 mg/kg, iv administered once weekly measured after 32 days (reference value: 0.68 +/- 0.06 g)", "type": "functional"}, "[2]": {"test_system": "OS-RC-2", "experiment": "Antitumor activity against human OS-RC2 cells xenografted in nude mouse assessed as tumor growth inhibition at 24 mg/kg, iv administered once weekly measured after 32 days relative to control", "type": "functional", "details": "OS-RC-2, iv, 768 h, read-out: TGI"}, "[3]": {"test_system": "OS-RC-2", "experiment": "Antitumor activity against human OS-RC2 cells xenografted in nude mouse assessed as reduction in tumor volume at 1.5 mg/kg, iv administered three times a week measured on day 32 relative to control", "type": "functional"}, "[4]": {"test_system": "Blood", "experiment": "Prodrug conversion in Sprague-Dawley rat blood assessed as everolimus level at 2.724 mg/kg, iv at 6 hrs post dose by HPLC method", "type": "ADME, organism-based", "details": "in vivo"}, "[5]": {"test_system": "Mus musculus", "experiment": "Toxicity in nude mouse xenografted with human OS-RC-2 cells assessed as body weight loss at 1.5 mg/kg, iv administered three times a week measured after 32 days (reference value: 33%)", "type": "organism-based", "details": "in vivo, 768 h"}, "[6]": {"test_system": "Mus musculus", "experiment": "Toxicity in nude mouse xenografted with human OS-RC2 cells assessed as body weight loss at 1.5 mg/kg administered three times a week intravenously and measured on Day 12 (reference value: 15 %)", "type": "organism-based", "details": "in vivo, iv"}, "[7]": {"test_system": "Serum", "experiment": "Prodrug conversion in rat serum assessed as everolimus formation after 4 hrs by HPLC analysis", "type": "ADME, cell-free"}, "[8]": {"test_system": "OS-RC-2", "experiment": "Antitumor activity against human OS-RC2 cells xenografted in nude mouse assessed as reduction in tumor volume at 24 mg/kg, iv administered once weekly measured on day 5 relative to control", "type": "functional"}, "[9]": {"test_system": "OS-RC-2", "experiment": "Antitumor activity against human OS-RC2 cells xenografted in nude mouse assessed as reduction in tumor volume at 1.5 mg/kg, iv administered three times a week measured on day 8 relative to control", "type": "functional"}, "[10]": {"test_system": "OS-RC-2", "experiment": "Antitumor activity against human OS-RC2 cells xenografted in nude mouse assessed as reduction in tumor volume at 1.5 mg/kg, iv administered three times a week measured on day 22 relative to control", "type": "functional"}, "[11]": {"test_system": "OS-RC-2", "experiment": "Antitumor activity against human OS-RC2 cells xenografted in nude mouse assessed as reduction in tumor volume at 24 mg/kg, iv administered once weekly measured on day 22 relative to control", "type": "functional"}, "[12]": {"test_system": "OS-RC-2", "experiment": "Antitumor activity against human OS-RC2 cells xenografted in nude mouse assessed as reduction in tumor volume at 24 mg/kg, iv administered once weekly measured on day 32 relative to control", "type": "functional"}, "[13]": {"experiment": "Cmax in Sprague-Dawley rat at 2.724 mg/kg, iv", "type": "ADME, organism-based", "parameters": "dose 2.724 mg/kg, route intravenous", "details": "in vivo"}, "[14]": {"test_system": "OS-RC-2", "experiment": "Antitumor activity against human OS-RC2 cells xenografted in nude mouse assessed as reduction in tumor volume at 24 mg/kg, iv administered once weekly measured on day 26 relative to control", "type": "functional"}, "[15]": {"test_system": "Mus musculus", "experiment": "Toxicity in nude mouse xenografted with human OS-RC-2 cells assessed as body weight at 1.5 mg/kg, iv administered three times a week measured on day 1 (reference value: 20.4 +/- 0.33 g)", "type": "organism-based", "details": "in vivo"}, "[16]": {"test_system": "PC-3", "experiment": "Antiproliferative activity against human PC3 cells after 48 hrs by MTT assay", "type": "functional, cell-based", "details": "PC-3, 48 h"}, "[17]": {"test_system": "Mus musculus", "experiment": "Toxicity in nude mouse xenografted with human OS-RC-2 cells assessed as body weight loss at 24 mg/kg, iv administered once weekly measured after 32 days (reference value: 33%)", "type": "organism-based", "details": "in vivo, 768 h"}, "[18]": {"test_system": "HepG2", "experiment": "Antiproliferative activity against human HepG2 cells after 48 hrs by MTT assay", "type": "functional, cell-based", "details": "HepG2, 48 h"}, "[19]": {"test_system": "Mus musculus", "experiment": "Toxicity in nude mouse xenografted with human OS-RC2 cells assessed as body weight loss at 1.5 mg/kg, iv administered three times a week measured on Day 15 (reference value: 20.2 %)", "type": "organism-based", "details": "in vivo"}, "[20]": {"test_system": "Blood", "experiment": "Prodrug conversion in Sprague-Dawley rat blood assessed as everolimus level at 2.724 mg/kg, iv at 2 hrs post dose by HPLC method", "type": "ADME, organism-based", "details": "in vivo"}, "[21]": {"test_system": "NCI-H460", "experiment": "Antiproliferative activity against human NCI-H460 cells after 48 hrs by MTT assay", "type": "functional, cell-based", "details": "NCI-H460, 48 h"}, "[22]": {"test_system": "Blood", "experiment": "Prodrug conversion in Sprague-Dawley rat blood assessed as everolimus level at 2.724 mg/kg, iv at 0.5 hrs post dose by HPLC method", "type": "ADME, organism-based", "details": "in vivo"}, "[23]": {"test_system": "OS-RC-2", "experiment": "Antitumor activity against human OS-RC2 cells xenografted in nude mouse assessed as reduction in tumor volume at 1.5 mg/kg, iv administered three times a week measured on day 19 relative to control", "type": "functional"}, "[24]": {"test_system": "OS-RC-2", "experiment": "Antitumor activity against human OS-RC2 cells xenografted in nude mouse assessed as reduction in tumor volume at 24 mg/kg, iv administered once weekly measured on day 12 relative to control", "type": "functional"}, "[25]": {"test_system": "Blood", "experiment": "Prodrug conversion in Sprague-Dawley rat blood assessed as everolimus level at 2.724 mg/kg, iv at 24 hrs post dose by HPLC method", "type": "ADME, organism-based", "details": "in vivo"}, "[26]": {"test_system": "Mus musculus", "experiment": "Toxicity in nude mouse xenografted with human OS-RC2 cells assessed as body weight loss at 24 mg/kg, iv administered once weekly measured on day 15 (reference value: 20.2 %)", "type": "organism-based", "details": "in vivo"}, "[27]": {"test_system": "OS-RC-2", "experiment": "Antitumor activity against human OS-RC2 cells xenografted in nude mouse assessed as tumor weight at 1.5 mg/kg, iv administered three times a week measured after 32 days (reference value: 0.68 +/- 0.06 g)", "type": "functional"}, "[28]": {"test_system": "Blood", "experiment": "Prodrug conversion in Sprague-Dawley rat blood assessed as everolimus level at 2.724 mg/kg, iv at 1 hr post dose by HPLC method", "type": "ADME, organism-based", "details": "in vivo"}, "[29]": {"test_system": "MDA-MB-435", "experiment": "Antiproliferative activity against human MDA-MB-435 cells after 48 hrs by MTT assay", "type": "functional, cell-based", "details": "MDA-MB-435, 48 h"}, "[30]": {"test_system": "Mus musculus", "experiment": "Toxicity in nude mouse xenografted with human OS-RC2 cells assessed as body weight loss at 24 mg/kg, iv administered once weekly measured on day 29 (reference value: 31.2 %)", "type": "organism-based", "details": "in vivo"}, "[31]": {"test_system": "OS-RC-2", "experiment": "Antitumor activity against human OS-RC2 cells xenografted in nude mouse assessed as reduction in tumor volume at 24 mg/kg, iv administered once weekly measured on day 19 relative to control", "type": "functional"}, "[32]": {"test_system": "Mus musculus", "experiment": "Toxicity in nude mouse xenografted with human OS-RC2 cells assessed as body weight loss at 1.5 mg/kg administered three times a week intravenously and measured on Day 19 (reference value: 23.1 %)", "type": "organism-based", "details": "in vivo, iv"}, "[33]": {"experiment": "AUC (0 to infinity) in Sprague-Dawley rat at 2.724 mg/kg, iv", "type": "ADME, organism-based", "parameters": "dose 2.724 mg/kg, route intravenous, time infinity", "details": "in vivo"}, "[34]": {"test_system": "OS-RC-2", "experiment": "Antitumor activity against human OS-RC2 cells xenografted in nude mouse assessed as reduction in tumor volume at 24 mg/kg, iv administered once weekly measured on day 29 relative to control", "type": "functional"}, "[35]": {"test_system": "Mus musculus", "experiment": "Toxicity in nude mouse xenografted with human OS-RC2 cells assessed as body weight loss at 1.5 mg/kg administered three times a week intravenously and measured on Day 22 (reference value: 23.1 %)", "type": "organism-based", "details": "in vivo, iv"}, "[36]": {"test_system": "Mus musculus", "experiment": "Toxicity in nude mouse xenografted with human OS-RC2 cells assessed as body weight loss at 1.5 mg/kg administered three times a week intravenously and measured on Day 29 (reference value: 31.2 %)", "type": "organism-based", "details": "in vivo, iv"}, "[37]": {"test_system": "Mus musculus", "experiment": "Toxicity in nude mouse xenografted with human OS-RC2 cells assessed as body weight loss at 24 mg/kg, iv administered once weekly measured on day 12 (reference value: 15 %)", "type": "organism-based", "details": "in vivo"}}}
{"smiles": "CO[C@H]1C[C@@H]2CC[C@@H](C)[C@@](O)(O2)C(=O)C(=O)N2CCCC[C@H]2C(=O)O[C@H]([C@H](C)C[C@@H]2CC[C@@H](OCCOC(=O)CSC[C@H](NC(=O)CC[C@H](N)C(=O)O)C(=O)NCC(=O)O)[C@H](OC)C2)CC(=O)[C@H](C)/C=C(\\C)[C@@H](O)[C@@H](OC)C(=O)[C@H](C)C[C@H](C)\\C=C/C=C/C=C/1C", "values": [{"measurement": "Activity", "setting": "[1]", "result": 0.26, "unit": "g"}, {"measurement": "inhibition in vivo at 24 mg/kg", "setting": "[2]", "result": 60.6, "unit": "%"}, {"measurement": "T/C", "setting": "[3]", "result": 0.52, "unit": "%"}, {"measurement": "Drug metabolism", "setting": "[4]", "result": 8.113, "unit": "ng/mL"}, {"measurement": "Activity", "setting": "[5]", "result": 12.3, "unit": "%"}, {"measurement": "Activity", "setting": "[6]", "result": 9.5, "unit": "%"}, {"measurement": "Drug metabolism", "setting": "[7]", "result": "Metabolite_Detected"}, {"measurement": "T/C", "setting": "[8]", "result": 0.55, "unit": "%"}, {"measurement": "T/C", "setting": "[9]", "result": 0.57, "unit": "%"}, {"measurement": "T/C", "setting": "[10]", "result": 0.56, "unit": "%"}, {"measurement": "T/C", "setting": "[11]", "result": 0.55, "unit": "%"}, {"measurement": "T/C", "setting": "[12]", "result": 0.53, "unit": "%"}, {"measurement": "Cmax", "setting": "[13]", "result": 8420, "unit": "ng/mL"}, {"measurement": "T/C", "setting": "[14]", "result": 0.55, "unit": "%"}, {"measurement": "Activity", "setting": "[15]", "result": 20.67, "unit": "g"}, {"measurement": "IC50", "setting": "[16]", "result": 25.9, "unit": "µM"}, {"measurement": "Activity", "setting": "[17]", "result": 10.7, "unit": "%"}, {"measurement": "IC50", "setting": "[18]", "result": 11.1, "unit": "µM"}, {"measurement": "Activity", "setting": "[19]", "result": 12, "unit": "%"}, {"measurement": "Drug metabolism", "setting": "[20]", "result": 28.155, "unit": "ng/mL"}, {"measurement": "IC50", "setting": "[21]", "result": 27.2, "unit": "µM"}, {"measurement": "Drug metabolism", "setting": "[22]", "result": 326.1655, "unit": "ng/mL"}, {"measurement": "T/C", "setting": "[23]", "result": 0.57, "unit": "%"}, {"measurement": "T/C", "setting": "[24]", "result": 0.47, "unit": "%"}, {"measurement": "Drug metabolism", "setting": "[25]", "result": 2.3295, "unit": "ng/mL"}, {"measurement": "Activity", "setting": "[26]", "result": 8.9, "unit": "%"}, {"measurement": "Activity", "setting": "[27]", "result": 0.29, "unit": "g"}, {"measurement": "Drug metabolism", "setting": "[28]", "result": 73.5532, "unit": "ng/mL"}, {"measurement": "IC50", "setting": "[29]", "result": 55.3, "unit": "µM"}, {"measurement": "Activity", "setting": "[30]", "result": 10.5, "unit": "%"}, {"measurement": "T/C", "setting": "[31]", "result": 0.49, "unit": "%"}, {"measurement": "Activity", "setting": "[32]", "result": 11.5, "unit": "%"}, {"measurement": "AUC(0-inf)", "setting": "[33]", "result": 2510, "unit": "ng·h/mL"}, {"measurement": "T/C", "setting": "[34]", "result": 0.54, "unit": "%"}, {"measurement": "Activity", "setting": "[35]", "result": 11.5, "unit": "%"}, {"measurement": "Activity", "setting": "[36]", "result": 11.5, "unit": "%"}, {"measurement": "Activity", "setting": "[37]", "result": 6.3, "unit": "%"}]}
